Source: patent US7807686B2, “2-(4-oxo-4H-quinazolin-3-yl)acetamides and their use as vasopressin V3 antagonists” (N.V. Organon, priority 2005, dated 2010)

What was measured:
[1] = molecular target: T1, V3 receptor (Rattus norvegicus, UniProt P48974); assay: Block of AVP-induced ACTH release from rat anterior pituitary corticotrophs; format: cell-based; conditions: inhibition of ACTH release induced by 3×10^-9 mol.L^-1 AVP, ELISA; read-out: V3 receptor antagonism in isolated rat anterior pituitary cells
T1 construct: Anterior pituitary corticotrophs were prepared from adult female Sprague-Dawley rats; from tissue; host or cells: primary anterior pituitary corticotrophs from adult female Sprague-Dawley rats
T1 sequence (P48974 1-425): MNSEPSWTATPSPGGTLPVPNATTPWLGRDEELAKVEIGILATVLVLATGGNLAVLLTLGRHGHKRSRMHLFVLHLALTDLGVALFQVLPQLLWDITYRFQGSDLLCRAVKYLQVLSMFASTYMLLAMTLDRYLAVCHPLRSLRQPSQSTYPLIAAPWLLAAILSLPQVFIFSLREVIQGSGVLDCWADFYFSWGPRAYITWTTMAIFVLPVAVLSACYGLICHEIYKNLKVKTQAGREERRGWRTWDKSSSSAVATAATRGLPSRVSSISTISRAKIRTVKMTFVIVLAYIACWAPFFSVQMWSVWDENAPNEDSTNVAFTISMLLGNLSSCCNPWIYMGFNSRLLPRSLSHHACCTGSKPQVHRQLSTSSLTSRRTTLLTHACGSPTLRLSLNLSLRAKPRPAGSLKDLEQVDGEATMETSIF
Experimental: The ability of compounds of the invention to act as V3 antagonists in a physiologically relevant system was determined by measuring their ability to block the release of adrenocorticotropic hormone (ACTH) from anterior pituitary corticotrophs in response to treatment with arginine vasopressin (AVP).
Anterior pituitary corticotrophs were prepared from adult female Sprague-Dawley rats and seeded into 48 well plates. The cells were cultured for 4 days prior to exposure to compound. Test compounds were prepared at […] in 100% DMSO. Cells were exposed to a dose response of test compounds for 20 minutes (10^−8 mol.L^−1-10^−5 mol.L^−1). The final concentration of DMSO in the assay was kept constant at 0.3%. The cells were then exposed to 3×10^−9 mol.L^−1 AVP for 120 minutes. Supernatants were harvested and stored at −20° C. ACTH levels were subsequently measured by ELISA following the manufacturer's instructions (Immunodiagnostic systems, UK (Cat No. DX-SDX018)). Each treatment was carried out in quadruplicate and a mean value obtained for the amount of ACTH released. The degree of antagonism was then calculated as a percentage of the amount of ACTH released by agonist alone after adjustment for basal levels of ACTH. A pIC50 was calculated by fitting a Sigmoidal dose response (variable slope) curve with a non-linear (fit) to the data using the software package GraphPad prism. […]

IC50 [1] | melting point | SMILES
0.01 to 0.1 µM |  | COc1cccc(-c2nc3ccc(OCCCN4CCCCC4)cc3c(=O)n2CC(=O)NC(C)C)c1 [EXAMPLE 2h, N-Isopropyl-2-[2-(3-methoxyphenyl)-4-oxo-6-(3-piperidin-1-ylpropoxy)-4H-quinazolin-3-yl]acetamide]
 | 161 to 163 °C | CCN(CC)C[C@H](C)COc1ccc2nc(-c3cccc(OC)c3)n(CC(=O)NC(C)C)c(=O)c2c1 [Example 4a, (S)-(+)-2-[6-(3-Diethylamino-2-methylpropoxy)-2-(3-methoxyphenyl)-4-oxo-4H-quinazolin-3-yl]-N-isopropylacetamide]
0.1 to 1 µM |  | COc1cccc(-c2nc3ccc(-c4cccc(CN(C)C)c4)cc3c(=O)n2CC(=O)NC(C)C)c1 [EXAMPLE 7k, 2-[6-(3-Dimethylaminomethylphenyl)-2-(3-methoxyphenyl)-4-oxo-4H-quinazolin-3-yl]-N-isopropylacetamide]
